Assays:
[1] = target: T1, PKN3 (Homo sapiens, UniProt Q6P5Z2); experiment: Kinase activity of PKN3 in transfected cells, phospho-GSKα read-out (Western blot); format: cell-based; conditions: cells transfected with WT PKN3; changing concentrations; FIG. 2
T1 construct: The full-length cDNA of human PKN3 (WT or wt) was amplified by PCR and cloned into a GST-fusion expression vector; GST; expressed in transfected cells; host or cells: HEK293T
From the text: (§1) The full-length cDNA of human PKN3 (WT or wt) was amplified by PCR and cloned into a GST-fusion expression vector under the control in a doxycycline (Dox)-inducible promoter. A kinase dead (KD or kd) version of PKN3, which comprises a K588R substitution, was also cloned into the same vector using the same strategy. The proteins were expressed in HEK293T cells transfected with the PKN3 WT and KD constructs. […] WT PKN3 is phosphorylated at the turn motif threonine (P*-PKN3^T860) and phosphorylates the GSKα substrate, whereas the KD version does neither (FIG. 1).
(§2) For protein extraction, cells were washed twice with cold phosphate-buffered saline (PBS) and lysed at 4° C. in lysis buffer containing 20 mM Tris (pH 7.5), 137 mM NaCl, 15% (vol/vol) glycerol, 1% (vol/vol) Nonidet P-40 (NP-40), 2 mM phenylmethylsulfonyl fluoride, […] of aprotinin per ml, […] leupeptin, 2 mM benzamidine, 1 mM sodium vanadate, 25 mM β-glycerolphosphate, 50 mM NaF, and 10 mM Na-pyrophosphate. Lysates were cleared by centrifugation at 14,000×g for 5 min, and aliquots of the lysates were analyzed for protein expression and enzyme activity (see below). Samples were separated by sodium dodecyl sulfate-polyacrylamide gel electrophoresis (SDS-PAGE) and transferred to nitrocellulose filters (Schleicher & Schuell). Filters were blocked in TBST buffer (10 mM Tris-HCl [pH 7.5], 150 mM NaCl, 0.05% [vol/vol] Tween 20, 0.5% [wt/vol] sodium azide) containing 5% (wt/vol) dried milk. The respective antibodies were added in TBST at appropriate dilutions. Bound antibody was detected with anti-mouse-, anti-goat, or anti-rabbit-conjugated alkaline phosphatase (Santa Cruz Biotechnology) in TBST, washed, and developed with nitroblue tetrazolium and 5-bromo-4-chloro-3-indolylphosphate (Promega). Alternatively, horseradish peroxidase-conjugated secondary antibodies were used and developed by enhanced chemiluminescence (Amersham).
Various ATP-type kinase inhibitors were assessed for their ability to inhibit the kinase activity of both recombinant wildtype (WT) and kinase dead (KD) versions of PKN3.

[2] = target: T2, kinase dead PKN3 (Homo sapiens, UniProt Q6P5Z2, K588R); experiment: Priming of kinase dead PKN3 for turn motif threonine phosphorylation by ATP binding pocket competitive inhibitors (Western blot); format: cell-based; conditions: KD PKN3 (K588R) in transfected cells; changing concentrations; FIG. 3
T2 construct: The full-length cDNA of human PKN3 (WT or wt) was amplified by PCR and cloned into a GST-fusion expression vector; GST; expressed in transfected cells; host or cells: HEK293T
T2 sequence (Q6P5Z2 whole entry K588R, the tested form may be a part): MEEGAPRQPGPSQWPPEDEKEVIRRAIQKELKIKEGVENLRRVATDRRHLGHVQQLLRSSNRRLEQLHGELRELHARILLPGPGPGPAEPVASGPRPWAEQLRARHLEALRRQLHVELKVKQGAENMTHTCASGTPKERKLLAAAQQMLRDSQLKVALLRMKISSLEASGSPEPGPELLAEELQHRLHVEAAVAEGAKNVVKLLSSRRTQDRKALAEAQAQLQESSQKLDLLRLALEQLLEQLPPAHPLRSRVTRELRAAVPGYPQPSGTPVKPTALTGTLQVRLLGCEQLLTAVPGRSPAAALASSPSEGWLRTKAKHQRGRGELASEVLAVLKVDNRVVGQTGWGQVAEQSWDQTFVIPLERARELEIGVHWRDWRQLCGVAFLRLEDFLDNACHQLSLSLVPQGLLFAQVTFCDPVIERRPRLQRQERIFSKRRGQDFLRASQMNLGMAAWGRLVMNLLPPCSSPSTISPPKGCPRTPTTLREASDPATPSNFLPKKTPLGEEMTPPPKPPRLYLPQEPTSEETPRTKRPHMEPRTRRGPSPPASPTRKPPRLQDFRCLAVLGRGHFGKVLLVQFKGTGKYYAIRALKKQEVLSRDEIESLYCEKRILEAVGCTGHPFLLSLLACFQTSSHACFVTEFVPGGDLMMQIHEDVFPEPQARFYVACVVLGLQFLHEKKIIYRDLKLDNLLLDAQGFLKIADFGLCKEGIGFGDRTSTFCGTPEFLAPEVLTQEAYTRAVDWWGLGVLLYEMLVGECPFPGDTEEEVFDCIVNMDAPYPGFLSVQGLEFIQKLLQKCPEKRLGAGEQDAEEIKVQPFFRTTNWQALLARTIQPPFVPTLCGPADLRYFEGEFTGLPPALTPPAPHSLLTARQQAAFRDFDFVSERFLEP
From the text: as §1, §2

[3] = test system: PKN3-T860; experiment: Turn motif (T860) phosphorylation of Y27632-primed PKN3 after kinase inhibitor treatment (Western blot); format: cell-based, human; conditions: WT and KD PKN3, doxycycline 1 μg/ml 5 hours, primed with 10 μM Y27632, inhibitor 7 hours; FIGS. 4 and 5
From the text: (§3) The full-length cDNA of human PKN3 (WT or wt) was amplified by PCR and cloned into a GST-fusion expression vector under the control in a doxycycline (Dox)-inducible promoter. A kinase dead (KD or kd) version of PKN3, which comprises a K588R substitution, was also cloned into the same vector using the same strategy. The proteins were expressed in HEK293T cells transfected with the PKN3 WT and KD constructs.
as §2, with “Filters were blocked in TBST buffer (10 mM Tris-HCl [pH 7.5], 150 mM NaCl, 0.05% [vol/vol] Tween 20, 0.5% [wt/vol] sodium azide) containing 5% (wt/vol) dried milk. The respective antibodies were added in TBST at appropriate dilutions.” left out, “Alternatively, horseradish peroxidase-conjugated secondary antibodies were used and developed by enhanced chemiluminescence (Amersham).” left out

[4] = test system: PKN3-T718; experiment: Activation loop (T718) phosphorylation of Y27632-primed PKN3 after kinase inhibitor treatment (Western blot); format: cell-based, human; conditions: WT and KD PKN3, doxycycline 1 μg/ml 5 hours, primed with 10 μM Y27632, inhibitor 7 hours; FIGS. 4 and 5
From the text: as §3
as §2, with “Filters were blocked in TBST buffer (10 mM Tris-HCl [pH 7.5], 150 mM NaCl, 0.05% [vol/vol] Tween 20, 0.5% [wt/vol] sodium azide) containing 5% (wt/vol) dried milk. The respective antibodies were added in TBST at appropriate dilutions.” left out, “Alternatively, horseradish peroxidase-conjugated secondary antibodies were used and developed by enhanced chemiluminescence (Amersham).” left out

[5] = test system: S6K-ST389; experiment: Phosphorylation of S6K-ST389, a target of mTORC1 (Western blot); format: cell-based; conditions: PKN3-transfected cells, inhibitor 7 hours; FIGS. 4 and 5
Procedure: as §2
(§4) PKN antibodies have been described in Leenders, 2004. […]

[6] = test system: AKT-S473; experiment: Phosphorylation of AKT-S473, a target of mTORC2 (Western blot); format: cell-based; conditions: PKN3-transfected cells, inhibitor 7 hours; FIGS. 4 and 5
Procedure: as §2, §4

[7] = test system: HEK293T cells transfected with wild-type PKN3; experiment: PKN3-induced morphology changes in cells (photomicrographs); format: cell-based; conditions: FIG. 6, panel C
From the text: FIG. 6 depicts photomicrographs of HEK293T cells transfected with wild-type (panels A, B and C) or kinase-dead (panels D, E and F) PKN3 constructs under control of a doxycycline responsive promoter, in the absence of doxycycline (panels A and D), in the presence of doxycycline (panels B and E) or in the presence of doxycycline and WAY-125132 (panels C and F).
The effects of WAY-125132 on PKN3-induced morphology changes in cells were examined.

[8] = test system: PKN1; experiment: Phosphorylated PKN1 (Western blot); format: cell-based; conditions: PKN3-transfected cells, inhibitor 7 hours; FIGS. 4 and 5, panels C
Procedure: as §2, with “(Amersham). […]” for “(Amersham).”

[9] = test system: PKN2; experiment: Phosphorylated PKN2 (Western blot); format: cell-based; conditions: PKN3-transfected cells, inhibitor 7 hours; FIGS. 4 and 5, panels C
Procedure: as §2, with “(Amersham). […]” for “(Amersham).”

T1 sequence (Q6P5Z2 whole entry, the tested form may be a part): as the sequence (Q6P5Z2 whole entry K588R, the tested form may be a part) above, with R588K counted along it

SMILES | inhibition of kinase activity of kinase active phosphorylated PKN3 (phospho-GSKα read-out) [1] | priming of kinase dead PKN3 to become phosphorylated at the turn motif threonine [2] | inhibition of PKN3 T860 phosphorylation [3] | inhibition of PKN3 T718 phosphorylation [4] | inhibition of phosphorylation of S6K-ST389 [5] | inhibition of phosphorylation of AKT-S473 [6] | effect on transformed phenotype of doxycycline treated cells transfected with WT PKN3 [7] | effect on PKN1 [8] | effect on PKN2 [9]
Oc1ccc(-c2nc(-c3ccncc3)c(-c3ccc(F)cc3)[nH]2)cc1 [SB202190] | inhibit the kinase activity of kinase active phosphorylated PKN3 in a concentration dependent manner | primed kinase dead PKN3 to become phosphorylated at the turn motif threonine in a concentration dependent manner |  |  |  |  |  |  | 
Cl.Cl.N=C(N)NN=C(Cn1ccnc1)c1ccc(Cl)cc1Cl [WAY-125132, 2-[1-(2,4-Dichlorophenyl)-2-(1H-imidazol-1-yl)ethylidene]hydrazinecarboximidamide dihydrochloride] |  |  | inhibit T860 phosphorylation in a dose dependent manner | not T718 phosphorylation | inhibit the phosphorylation of S6K-ST389 | inhibit the phosphorylation | reversed this effect |  | 
CCc1[nH]c(-c2ccc(OC)cc2)nc1-c1ccncc1 [SB202474] | not | not |  |  |  |  |  |  | 
CO[C@H]1C[C@@H]2CC[C@@H](C)[C@@](O)(O2)C(=O)C(=O)N2CCCC[C@H]2C(=O)O[C@H]([C@H](C)C[C@@H]2CC[C@@H](OC(=O)C(C)(CO)CO)[C@H](OC)C2)CC(=O)[C@H](C)/C=C(\C)[C@@H](O)[C@@H](OC)C(=O)[C@H](C)C[C@H](C)/C=C/C=C/C=C/1C [CCI-779, (3S,6R,7E,9R,10R,12R,14S,15E,17E,19E,21S,23S,26R,27R,34aS)-9,10,12,13,14,21,22,23,24,25,26,27,32,33,34,34a-Hexadecahydro-9,27-dihydroxy-3-[(1R)-2-[(1S,3R,4R)-4-hydroxy-3-methoxycyclohexyl]-1-methylethyl]-10,21-dimethoxy-6,8,12,14,20,26-hexamethyl-23,27-epoxy-3H-pyrido[2,1-c][1,4]oxaazacyclohentriacontine-1,5,11,28,29(4H,6H,31H)-pentone 4′-[2,2-bis(hydroxymethyl)propionate]] |  |  | had no effect | had no effect | inhibit S6K-ST389 | had no effect |  | had no effect | had no effect
C[C@@H](N)[C@H]1CC[C@H](C(=O)Nc2ccncc2)CC1 [Y27632] | inhibit the kinase activity of kinase active phosphorylated PKN3 in a concentration dependent manner | primed kinase dead PKN3 to become phosphorylated at the turn motif threonine in a concentration dependent manner |  |  |  |  |  |  | 
